Where a name gives a salt, the structure may show the parent alone. Read-outs that look alike come from different tables or passages of the source.
Experiments:
[1] = tested on: anesthetized rabbits; test: clofilium-induced Torsades de Pointes in methoxamine-treated anesthetized rabbits; format: in vivo, rabbit
Description: Spontaneous TdP was induced with methoxamine (α1-adrenoceptor agonist) followed by clofilium (Ikr blocker) in anesthetized rabbits as previously described by Carlsson et al (J. Cardiovas. Pharmacol 1990; 16:276-285). RAN was given via intravenous (iv) infusion 10 min prior to clofilium. Arterial pressure (BP), lead II ECG and endocardial Monophasic Action Potential (MAP) were recorded. QT interval was corrected for heart rate by using a formula developed for rabbits: QTc=QT−0.175*(RR−300).

[2] = tested on: female rabbit hearts; test: female rabbit isolated hearts paced at 1 Hz: monophasic action potentials and 12-lead ECG
[3] = cited from earlier work
[4] = tested on: slow component of the delayed rectifier K+ current; conditions: at 30 μM; cited from earlier work
[5] = tested on: rabbit and guinea-pig isolated hearts and canine ventricular myocytes; conditions: cited from earlier work
[6] = tested on: inward rectifier K+ current (IKI); conditions: cited from earlier work
[7] = target: HERG channels expressed in HEK293 cells (Homo sapiens, UniProt Q12809); conditions: for time constant for development of block of IHERG: human
From the text: Human-ether-a-go-go related gene (HERG) encodes the cardiac rapidly activating delayed rectifier K^+ current (IKr). Inhibition of HERG K^+ current (IHERG) is a mechanism for drug-induced long QT syndrome.

[8] = tested on: IKr; conditions: cited from earlier work
[9] = tested on: transient outward K+ current (Ito); conditions: cited from earlier work
[10] = ranolazine 10 μM in the presence of 60 nM E-4031, n=9, p<0.01
[11] = iv infusion 10 min prior to clofilium, n=6

Sequence of HERG channels expressed in HEK293 cells (Q12809 whole entry): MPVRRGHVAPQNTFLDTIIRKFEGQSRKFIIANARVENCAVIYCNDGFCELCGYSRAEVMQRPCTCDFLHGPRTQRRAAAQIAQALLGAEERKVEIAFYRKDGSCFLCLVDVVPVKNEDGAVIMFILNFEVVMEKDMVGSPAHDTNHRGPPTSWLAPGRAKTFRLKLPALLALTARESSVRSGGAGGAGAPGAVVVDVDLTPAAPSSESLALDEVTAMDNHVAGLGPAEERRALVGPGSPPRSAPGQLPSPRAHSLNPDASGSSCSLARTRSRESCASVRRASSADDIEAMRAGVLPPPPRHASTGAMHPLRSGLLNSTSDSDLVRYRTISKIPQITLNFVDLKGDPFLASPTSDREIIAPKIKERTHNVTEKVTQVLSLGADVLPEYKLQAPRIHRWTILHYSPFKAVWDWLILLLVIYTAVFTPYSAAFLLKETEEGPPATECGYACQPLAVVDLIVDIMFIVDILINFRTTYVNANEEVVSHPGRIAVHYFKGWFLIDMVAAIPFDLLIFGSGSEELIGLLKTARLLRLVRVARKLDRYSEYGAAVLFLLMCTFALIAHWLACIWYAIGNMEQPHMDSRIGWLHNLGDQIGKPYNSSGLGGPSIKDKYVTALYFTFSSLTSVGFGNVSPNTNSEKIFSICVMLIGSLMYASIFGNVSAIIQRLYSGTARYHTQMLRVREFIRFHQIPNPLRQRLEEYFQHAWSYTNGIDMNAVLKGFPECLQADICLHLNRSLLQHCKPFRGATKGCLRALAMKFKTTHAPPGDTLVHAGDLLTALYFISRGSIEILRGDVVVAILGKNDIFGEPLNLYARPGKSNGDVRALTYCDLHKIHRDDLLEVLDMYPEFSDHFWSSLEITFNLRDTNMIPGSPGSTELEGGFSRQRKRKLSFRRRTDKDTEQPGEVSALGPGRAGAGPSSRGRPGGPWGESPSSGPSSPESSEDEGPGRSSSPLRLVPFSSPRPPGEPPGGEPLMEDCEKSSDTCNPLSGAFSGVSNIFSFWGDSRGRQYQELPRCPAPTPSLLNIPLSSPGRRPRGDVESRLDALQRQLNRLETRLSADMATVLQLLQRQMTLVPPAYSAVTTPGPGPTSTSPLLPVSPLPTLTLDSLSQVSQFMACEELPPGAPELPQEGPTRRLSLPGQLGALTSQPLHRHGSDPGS

## CCCCCCC[N+](CC)(CC)CCCCc1ccc(Cl)cc1.[Br-] [Clofilium, 4-chloro-N,N-diethyl-N-heptyl benzenebutanaminium bromide]
[1]; clofilium after methoxamine, rabbits with TdP/rabbits
  rabbits with TdP: 6/6
[1]; from 123±6 ms, n=6, P<0.05
  MAPD90 after clofilium: 201 ± 21 ms
[1]; from 130±4 ms, n=6, P<0.05
  QTc after clofilium: 200 ± 18 ms

## Cc1cccc(CCN2CCC(C(=O)c3ccc(NS(C)(=O)=O)cc3)CC2)n1 [E-4031, N-(4-[(1-[2-(6-methyl-2-pyridyl)ethyl]-4-piperidylcarbonyl]phenyl)methanesulfonamidedihydrochloride dehydrate]
[2]
  epicardial MAPD90 with drug: 254 ± 6 ms
  increase of transmural MAPD dispersion: 74 ± 7 ms
  prolongation of duration of epicardial MAP (MAPD90): 75 ± 5 ms
  transmural MAPD dispersion with drug: 90 ± 10 ms

## NC1=N[C@H](O)[C@H]2[C@H]3O[C@]4(O)O[C@@H]([C@@H](O)[C@@]2(N1)[C@@H]4O)[C@]3(O)CO [TTX, Tetrodotoxin]
[2]
  changes in the QRS interval: no or minimal changes
  decrease of transmural dispersion: 47 ± 11 ms
  effect on MAPD90: no effects
  effect on transmural dispersion of MAPD90: no effects
  shortening of MAPD: 33 ± 8 ms

## COc1ccccc1OCC(O)CN1CCN(CC(=O)Nc2c(C)cccc2C)CC1 (stereo not shown) [ranolazine, N-(2,6-dimethylphenyl)-4-[2-hydroxy-3-(2-methoxyphenoxy)propyl]-1-piperazineacetamide]
[3]; in the absence of ATX-II
  effect on MAPD90: increased
[3]; in the presence of 2 nM ATX-II
  effect on MAPD: shortened
[4]
  inhibition of the slow component of the delayed rectifier K+ current (IKr): ~17%
[5]; at therapeutic concentrations
  increase in monophasic APD (MAPD) or QT interval: 2 to 6 ms
[5]
  pro-arrhythmic activity: not associated with pro-arrhythmic activity
[6]
  effect on IKI: no effect
[2]
  changes in the QRS interval: no or minimal changes
[2]; ranolazine 10 μM
  effect on spontaneous and pause-triggered episodes of TdP induced by 60 nM E-4031: abolished
[2]; [10]
  decrease of transmural dispersion: 40 ± 9 ms
  shortening of MAPD90: 19 ± 5 ms
[2]; ranolazine 5-30 μM alone
  effect on transmural dispersion of MAPD90: without increasing
[2]; ranolazine 5-30 μM alone, concentration-dependent, n=7, p<0.01
  prolongation of epicardial MAPD90: 32±4%
[7]
  character of block of IHERG: reversible and voltage-dependent, but frequency-independent
[7]; 10 μM
  time constant for development of block of IHERG: 76.6 ± 1.6 ms
[7]; 30 μM
  time constant for development of block of IHERG: 35.8 ± 2.4 ms
[7]; 100 μM
  time constant for development of block of IHERG: 19.4 ± 1.7 ms
[8]
  effect on IKr: inhibit
[1]; RAN at 25 μM, P<0.005 vs vehicle control
  occurrence of TdP: 0/6
[1]; RAN at 25 μM, from 32±1 ms, n=5, P>0.05
  QRS interval: 33 ± 1 ms
[1]; RAN at 25 μM, from 79±2 ms, n=5, P>0.05
  PR interval: 77 ± 1 ms
[1]; RAN at 25 μM, from 186±9 bpm, n=5, P>0.05
  heart rate: 204±10 bpm
[1]; [11]
  ED50 for suppression of clofilium-induced MAPD90 prolongation: 15 µM
  ED50 for suppression of clofilium-induced QTc prolongation: 10 µM
  ED50 for suppression of clofilium-induced TdP: 10 µM
[9]
  effect on Ito: no effect
